From US11052118B2, “Enhanced stem cell composition” (Fate Therapeutics, Inc., priority 2011, dated 2021) come the findings set out here.

Assay [1] concerns CXCR4 mRNA in cord blood derived CD34+ cells. The experiment in a line: CXCR4 qPCR using the Applied Biosystems StepOnePlus, cord blood CD34+ cells. Format: cell-based, human. How it is done:
(§1) Real-time PCR transcript quantitation from ex vivo treated cord CD34^+ cells (Stem Cell Technologies, Vancouver, BC, Canada) and mobilized peripheral blood CD34^+ cells (All Cells, LLC, Emoryville, Calif., USA) was performed using the Applied Biosystems StepOne Plus system (Life Technologies Corporation, Carlsbad, Calif., USA) (see FIG. 3). […] After treatment, cells were washed with SFEM and centrifuged at 300 g for 10 minutes.
(§2) Total RNA was then isolated from treated cells using Pico Pure RNA Isolation Kit (Molecular Devices, Sunnyvale, Calif., USA). Complimentary DNA (cDNA) was reverse transcribed from 50 ng of isolated total RNA using the High-Capacity cDNA Reverse Transcription Kit (Life Technologies).
(§3) Real-Time PCR analysis was run on the cDNA samples in duplicate. The reaction mix contained 1 μL Gene Specific Taqman Assay (20λ) and 10 μL Gene Expression Master Mix (Life Technologies) with the remaining volume of 9 μL contained 10 ng cDNA and sterile diH2O.
(§4) CXCR4 results (assay from Table 1) were analyzed using Applied Biosystems StepOne Software v2.1 Analysis software. Average Cts were calculated from the sample replicates and delta-delta Cts (ΔΔCt) were calculated using GAPDH results (assay from Table 1) as a reference gene against a vehicle only sample. […] Error bars depict +/− the Standard Deviation (SD) of the replicate measurements (See FIGS. 1-3, 5, and 6).

For assay [2], the system named is CXCR4 mRNA in human umbilical cord blood derived CD34+ cells. The experiment in a line: CXCR4 qPCR using the Fluidigm platform. Format: cell-based. The following applies: 10 μM single agent in SFEM, 4 h, 37° C., compared to DMSO treated cells. How it is done: Real-time PCR transcript quantitation of gene expression from ex vivo treated human umbilical cord blood derived CD34^+ cells (Stem Cell Technologies, Vancouver, BC, Canada) was performed using the BioMark Dynamic Array microfluidics system (Fluidigm Corporation, South San Francisco, Calif., USA).
CD34^+ cells derived from cord blood or mobilized peripheral blood were treated in Serum-Free Expansion Medium (SFEM; e.g., StemSpan® from StemCell Technologies, Inc.) for four hours at 37° C., 5% CO2 with 10 uM prostaglandin pathway agonist alone or in combination with 10 uM of a glucocorticoid. Prostaglandin pathway agonists included 16,16-dimethyl PGE2 (dmPGE2), 20-ethyl PGE2 (ePGE2), 15(S)-15-methyl PGE2 (mPGE2), and PGE2. Glucocorticoids included hydrocortisone, dexamethasone, medrysone, alclometasone, or triamcinalone. After treatment, cells were washed with SFEM and centrifuged at 300 g for 10 minutes.
Total RNA was isolated then isolated from treated cells using Pico Pure RNA Isolation Kit (Molecular Devices, Sunnyvale, Calif., USA). […]
Results were analyzed using BioMark Real-Time PCR Analysis software. Average Cts were calculated from the sample replicates and delta-delta Cts (ΔΔCt) were calculated using the mean of 3 reference genes (GAPDH, HPRT1, QARS) against a vehicle only sample. […]
For orientation: Real-time PCR tracks product formation cycle by cycle.

The subject of assay [3] is CXCR4 surface protein on CD34+ cells from human bone marrow. The experiment in a line: CXCR4 surface protein expression by flow cytometry, bone marrow CD34+ cells. Format: cell-based. The following applies: BM CD34+ cells, 10 μM each agent, 4 hours at 37° C. in SFEM, then 2 hours in SFEM.
For assay [4], the system named is CD34+ cells migrating towards SDF1. The experiment in a line: SDF-1 transwell migration assay. To be noted: cells treated 4 hours at 37° C. with 10 μM, 50 ng/mL SDF1 in lower chamber, 2.5 hours; listed as dmPGE2. It is filed as cell-based, human. How it is done: Transwell migration assays were performed using 96-well chemotaxis chambers, […] pore size polycarbonate membrane (Corning Inc., Corning, N.Y.) in accordance with manufacturer's instructions. Briefly, CD34^+ cells were then treated for 4 hours at 37° C. with 16,16-dimethyl PGE2 (dmPGE2), dmPGE2 and glucocorticoid, or DMSO control at a concentration of 10 μM in StemSpan® media (Stem Cell Technology, Vancouver, Canada). The cells were then washed by centrifugation (300×g for 10 minutes) and resuspended in transwell assay buffer (Phenol Red Free RPMI media (Mediatech), 0.5% lipid free BSA (Sigma-Aldrich) at a concentration of 40,000-60,000 cells/75 μl.
To test the duration of the treatment effects, one portion of treated cells was washed by centrifugation (300×g for 10 minutes) and resuspended in StemSpan® media for 4 hours at 37° C. without dmPGE2, glucocorticoids, or DMSO and then washed again by centrifugation (300×g for 10 minutes) and resuspended in transwell assay buffer (Phenol Red Free RPMI media (Mediatech), 0.5% lipid free BSA (Sigma-Aldrich) at a concentration of 40,000-60,000 cells/75 μl.
Seventy-five μl of cell suspension was added to the upper chamber of the plate, while 235 μl of transwell assay media containing 0 or 50 ng/ml SDF1α (R&D system, Minneapolis, Minn.) was added to the bottom well. […]

Assay [5] concerns CXCR4 mRNA in mobilized peripheral blood CD34+ cells. The experiment in a line: CXCR4 qPCR using the Applied Biosystems StepOnePlus, mobilized peripheral blood CD34+ cells. It is filed as cell-based, human. How it is done: as §1, §2, §3, §4

Turning to `CCCCC(C)(C)[C@H](O)/C=C/[C@H]1[C@H](O)CC(=O)[C@@H]1C/C=C\CCCC(=O)O` [16,16-dimethyl PGE2], the “CXCR4 RNA expression” value in assay [1] (cord blood CD34+ cells, 10 μM, 2 and 4 hours at 37° C. in SFEM, compared to DMSO treated cells) is recorded as “increase”; in assay [5] (mPB CD34+ cells, 10 μM, 2 and 4 hours at 37° C. in SFEM, compared to DMSO treated cells), “increase”. Also, the “increase in CXCR4 mRNA expression” value in assay [1] (cord blood derived CD34+ cells, 4 hour treatment in SFEM, 10 μM each agent, against vehicle only sample) came out at 22 fold; in assay [2], 22 fold; in assay [5] (CD34+ cells from mobilized peripheral blood, 4 hour treatment in SFEM, 10 μM each agent, against vehicle only sample) it was 27 fold. For the same compound, the “increase in the level of CXCR4 protein expression” value in assay [3] was found to be 12 fold. Moreover, the “SDF1-driven cell migration (% of cells added), words” value in assay [4] is on record as “increased SDF1-driven cell migration compared to the DMSO control”.
